According to PubChem BioAssay AID1845201 (Molecular Pharmacology Branch, DTP, NCI, 2023):

Tested on: COR L88 complex tumor spheroid viability
Experiment: Anticancer human tumor COR L88 cell line growth inhibition;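 note: compound exposure lasted 7 days before viability readout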;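 for viability, T/C: percent of DMSO vehicle-treated spheroids = 100%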
Conditions: for IC50: curve of first compound; for viability, T/C: stronger effect = lower value
In short: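 Single agents and combinations were tested on spheroids built from tumor cells plus HUVEC and hMSC, at half-log dilutions starting at or near clinical Cmax, else 10 microM; final DMSO 0.25% (v/v).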

[1] = second compound 30 pM, first compound 0.0316 µM
[2] = second compound 30 pM, first compound 0.1 µM
[3] = second compound 30 pM, first compound 0.316 µM
[4] = second compound 30 pM, first compound 1 µM
[5] = second compound 30 pM, first compound 3.16 µM
[6] = second compound 30 pM, first compound 10 µM
[7] = second compound 94.9 pM, first compound 0.0316 µM
[8] = second compound 94.9 pM, first compound 0.1 µM
[9] = second compound 94.9 pM, first compound 0.316 µM
[10] = second compound 94.9 pM, first compound 1 µM
[11] = second compound 94.9 pM, first compound 3.16 µM
[12] = second compound 94.9 pM, first compound 10 µM
[13] = second compound 0.0003 µM, first compound 0.0316 µM
[14] = second compound 0.0003 µM, first compound 0.1 µM
[15] = second compound 0.0003 µM, first compound 0.316 µM
[16] = second compound 0.0003 µM, first compound 1 µM
[17] = second compound 0.0003 µM, first compound 3.16 µM
[18] = second compound 0.0003 µM, first compound 10 µM
[19] = second compound 0.000949 µM, first compound 0.0316 µM
[20] = second compound 0.000949 µM, first compound 0.1 µM
[21] = second compound 0.000949 µM, first compound 0.316 µM
[22] = second compound 0.000949 µM, first compound 1 µM
[23] = second compound 0.000949 µM, first compound 3.16 µM
[24] = second compound 0.000949 µM, first compound 10 µM
[25] = second compound 0.003 µM, first compound 0.0316 µM
[26] = second compound 0.003 µM, first compound 0.1 µM
[27] = second compound 0.003 µM, first compound 0.316 µM
[28] = second compound 0.003 µM, first compound 1 µM
[29] = second compound 0.003 µM, first compound 3.16 µM
[30] = second compound 0.003 µM, first compound 10 µM

In the case of CC1COCCN1c1cc(-c2ccnn2C)c2ccnc(-c3ccn[nH]3)c2n1 (stereo not given) + COc1cc2c(cc1O)CCNC21CSC2c3c(OC(C)=O)c(C)c4c(c3C(COC1=O)N1C(O)C3Cc5cc(C)c(OC)c(O)c5C(C21)N3C)OCO4, the IC50 (second compound 30 pM) is reported as 111 nM, the IC50 (second compound 94.9 pM) is reported as < 31.6 nM and the IC50 (second compound 0.0003 µM) is reported as < 31.6 nM. The IC50 (second compound 0.000949 µM) was < 31.6 nM, the IC50 (second compound 0.003 µM) was < 31.6 nM and the viability, T/C [1] was 72.1%. The viability, T/C [2] was 49.5%, the viability, T/C [3] was 36.7% and the viability, T/C [4] was 20.3%. It also gave a viability, T/C [5] of 7.72%, a viability, T/C [6] of 3.13% and a viability, T/C [7] of 41.8%. It also gave a viability, T/C [8] of 36.9%, a viability, T/C [9] of 25.6% and a viability, T/C [10] of 17.2%. The viability, T/C [11] was 6.6%, the viability, T/C [12] was 2.46% and the viability, T/C [13] was 28.6%. The viability, T/C [14] was 25.4%, the viability, T/C [15] was 19.9% and the viability, T/C [16] was 11%. It also gave a viability, T/C [17] of 3.54%, a viability, T/C [18] of 1.58% and a viability, T/C [19] of 6.86%. For the same molecule, the viability, T/C [20] was 7.07%, the viability, T/C [21] was 3.61% and the viability, T/C [22] was 2.02%. It also gave a viability, T/C [23] of 0.7%, a viability, T/C [24] of 0.25% and a viability, T/C [25] of 0.56%. The viability, T/C [26] was 0.53%, the viability, T/C [27] was 0.53% and the viability, T/C [28] was 0.41%. The viability, T/C [29] was 0.58% and the viability, T/C [30] was 0.58%.
COc1cc(C)[nH]c(=O)c1CN1CCc2c(Cl)cc(C(OC)C3COC3)c(Cl)c2C1=O (stereo not given) + COc1cc2c(cc1O)CCNC21CSC2c3c(OC(C)=O)c(C)c4c(c3C(COC1=O)N1C(O)C3Cc5cc(C)c(OC)c(O)c5C(C21)N3C)OCO4 was tested, and the IC50 (second compound 30 pM) was > 10000 nM, the IC50 (second compound 94.9 pM) was > 10000 nM and the IC50 (second compound 0.0003 µM) was < 31.6 nM. The IC50 (second compound 0.000949 µM) was < 31.6 nM, the IC50 (second compound 0.003 µM) was < 31.6 nM and the viability, T/C [1] was 109%. The viability, T/C [2] was 98.7%, the viability, T/C [3] was 96.8% and the viability, T/C [4] was 91.4%. It also gave a viability, T/C [5] of 86.7%, a viability, T/C [6] of 83.2% and a viability, T/C [7] of 99.4%. For the same molecule, the viability, T/C [8] was 84.2%, the viability, T/C [9] was 82.2% and the viability, T/C [10] was 86.2%. It also gave a viability, T/C [11] of 80.9%, a viability, T/C [12] of 80.9% and a viability, T/C [13] of 49.3%. For the same molecule, the viability, T/C [14] was 41.2%, the viability, T/C [15] was 38% and the viability, T/C [16] was 36.3%. For the same molecule, the viability, T/C [17] was 34.2%, the viability, T/C [18] was 31.3% and the viability, T/C [19] was 39.6%. For the same molecule, the viability, T/C [20] was 47.4%, the viability, T/C [21] was 44.6% and the viability, T/C [22] was 37.7%. The viability, T/C [23] was 34.1%, the viability, T/C [24] was 18.3% and the viability, T/C [25] was 1.16%. The viability, T/C [26] was 1.08%, the viability, T/C [27] was 0.9% and the viability, T/C [28] was 1.24%. The viability, T/C [29] was 1.05% and the viability, T/C [30] was 1.71%.
With Cc1cc(C)c(CNC(=O)c2cc(-c3ccc(CN4CCOCC4)cc3)cc3c2cnn3C2CCCC2)c(=O)[nH]1 + COc1cc2c(cc1O)CCNC21CSC2c3c(OC(C)=O)c(C)c4c(c3C(COC1=O)N1C(O)C3Cc5cc(C)c(OC)c(O)c5C(C21)N3C)OCO4 the IC50 (second compound 30 pM) was > 10000 nM, the IC50 (second compound 94.9 pM) was > 10000 nM and the IC50 (second compound 0.0003 µM) was 2460 nM. The IC50 (second compound 0.000949 µM) was < 31.6 nM, the IC50 (second compound 0.003 µM) was < 31.6 nM and the viability, T/C [1] was 107%. The viability, T/C [2] was 93.7%, the viability, T/C [3] was 102% and the viability, T/C [4] was 85.3%. For the same molecule, the viability, T/C [5] was 73.8%, the viability, T/C [6] was 60.2% and the viability, T/C [7] was 98.4%. For the same molecule, the viability, T/C [8] was 107%, the viability, T/C [9] was 104% and the viability, T/C [10] was 86.9%. For the same molecule, the viability, T/C [11] was 79.2%, the viability, T/C [12] was 51.1% and the viability, T/C [13] was 63.8%. The viability, T/C [14] was 67.3%, the viability, T/C [15] was 62.6% and the viability, T/C [16] was 50.4%. For the same molecule, the viability, T/C [17] was 48.7%, the viability, T/C [18] was 42.2% and the viability, T/C [19] was 49.3%. The viability, T/C [20] was 43.8%, the viability, T/C [21] was 39.7% and the viability, T/C [22] was 43.1%. For the same molecule, the viability, T/C [23] was 35.2%, the viability, T/C [24] was 10.1% and the viability, T/C [25] was 1.12%. The viability, T/C [26] was 1.08%, the viability, T/C [27] was 0.94% and the viability, T/C [28] was 1.18%. It also gave a viability, T/C [29] of 0.93% and a viability, T/C [30] of 0.96%.
Cc1sc2c(c1C)C(c1ccc(Cl)cc1)=NC(CC(=O)Nc1ccc(O)cc1)c1nnc(C)n1-2 (stereo not given) + COc1cc2c(cc1O)CCNC21CSC2c3c(OC(C)=O)c(C)c4c(c3C(COC1=O)N1C(O)C3Cc5cc(C)c(OC)c(O)c5C(C21)N3C)OCO4 gave an IC50 (second compound 30 pM) of 455 nM, an IC50 (second compound 94.9 pM) of 432 nM and an IC50 (second compound 0.0003 µM) of 464 nM. For the same molecule, the IC50 (second compound 0.000949 µM) was 104 nM, the IC50 (second compound 0.003 µM) was < 9.49 nM and the viability, T/C (second compound 30 pM, first compound 0.00949 µM) was 92.5%. For the same molecule, the viability, T/C (second compound 30 pM, first compound 0.03 µM) was 90.9%, the viability, T/C (second compound 30 pM, first compound 0.0949 µM) was 101% and the viability, T/C (second compound 30 pM, first compound 0.3 µM) was 65.3%. For the same molecule, the viability, T/C (second compound 30 pM, first compound 0.949 µM) was 23.6%, the viability, T/C (second compound 30 pM, first compound 3 µM) was 14.8% and the viability, T/C (second compound 94.9 pM, first compound 0.00949 µM) was 92.6%. For the same molecule, the viability, T/C (second compound 94.9 pM, first compound 0.03 µM) was 96.5%, the viability, T/C (second compound 94.9 pM, first compound 0.0949 µM) was 94.2% and the viability, T/C (second compound 94.9 pM, first compound 0.3 µM) was 55.3%. The viability, T/C (second compound 94.9 pM, first compound 0.949 µM) was 33.5%, the viability, T/C (second compound 94.9 pM, first compound 3 µM) was 14.1% and the viability, T/C (second compound 0.0003 µM, first compound 0.00949 µM) was 76.1%. It also gave a viability, T/C (second compound 0.0003 µM, first compound 0.03 µM) of 118%, a viability, T/C (second compound 0.0003 µM, first compound 0.0949 µM) of 122% and a viability, T/C (second compound 0.0003 µM, first compound 0.3 µM) of 72.6%. It also gave a viability, T/C (second compound 0.0003 µM, first compound 0.949 µM) of 15.1%, a viability, T/C (second compound 0.0003 µM, first compound 3 µM) of 3.51% and a viability, T/C (second compound 0.000949 µM, first compound 0.00949 µM) of 87.4%. For the same molecule, the viability, T/C (second compound 0.000949 µM, first compound 0.03 µM) was 84.6%, the viability, T/C (second compound 0.000949 µM, first compound 0.0949 µM) was 54% and the viability, T/C (second compound 0.000949 µM, first compound 0.3 µM) was 5.62%. For the same molecule, the viability, T/C (second compound 0.000949 µM, first compound 0.949 µM) was 1.33%, the viability, T/C (second compound 0.000949 µM, first compound 3 µM) was 0.42% and the viability, T/C (second compound 0.003 µM, first compound 0.00949 µM) was 0.68%. It also gave a viability, T/C (second compound 0.003 µM, first compound 0.03 µM) of 0.7%, a viability, T/C (second compound 0.003 µM, first compound 0.0949 µM) of 0.6% and a viability, T/C (second compound 0.003 µM, first compound 0.3 µM) of 0.57%. The viability, T/C (second compound 0.003 µM, first compound 0.949 µM) was 0.69% and the viability, T/C (second compound 0.003 µM, first compound 3 µM) was 1.49%.
[2H]c1nc(C)nc([2H])c1-c1cc(NC[C@@H](C)c2cccc3c(C(=O)NC)ccnc23)ncn1 + COc1cc2c(cc1O)CCNC21CSC2c3c(OC(C)=O)c(C)c4c(c3C(COC1=O)N1C(O)C3Cc5cc(C)c(OC)c(O)c5C(C21)N3C)OCO4 was tested, and the IC50 (second compound 30 pM) was > 10000 nM, the IC50 (second compound 94.9 pM) was > 10000 nM and the IC50 (second compound 0.0003 µM) was > 10000 nM. The IC50 (second compound 0.000949 µM) was 4450 nM, the IC50 (second compound 0.003 µM) was < 31.6 nM and the viability, T/C [1] was 98.3%. For the same molecule, the viability, T/C [2] was 98.8%, the viability, T/C [3] was 96.3% and the viability, T/C [4] was 105%. It also gave a viability, T/C [5] of 102%, a viability, T/C [6] of 98.3% and a viability, T/C [7] of 102%. For the same molecule, the viability, T/C [8] was 100%, the viability, T/C [9] was 110% and the viability, T/C [10] was 101%. The viability, T/C [11] was 94.6%, the viability, T/C [12] was 88% and the viability, T/C [13] was 72.8%. For the same molecule, the viability, T/C [14] was 68.8%, the viability, T/C [15] was 66.9% and the viability, T/C [16] was 73.3%. It also gave a viability, T/C [17] of 73.4%, a viability, T/C [18] of 69.6% and a viability, T/C [19] of 59%. For the same molecule, the viability, T/C [20] was 58.7%, the viability, T/C [21] was 55.9% and the viability, T/C [22] was 57.4%. For the same molecule, the viability, T/C [23] was 50.7%, the viability, T/C [24] was 45.8% and the viability, T/C [25] was 0.64%. For the same molecule, the viability, T/C [26] was 0.73%, the viability, T/C [27] was 0.53% and the viability, T/C [28] was 0.45%. It also gave a viability, T/C [29] of 0.55% and a viability, T/C [30] of 1.03%.
